Patent US20260115331A1, “PET IMAGING OF BACTERIAL INFECTION WITH A PET PROBE” (Mayo Foundation for Medical Education and Research, priority 2022, published 2026)

Assay: PET image analysis (SUV) of inflamed tibia in foreign body inflammation rat model
Format: in vivo, rats
Conditions: each time point up to 120 minutes (FIG. 27)
Protocol: The PET probe [^68Ga]Ga-H3P2O8 was evaluated in methicillin-resistant S. aureus (MRSA) foreign-body osteomyelitis in the left tibia with a stainless steel Kirschner wire (K-wire) implant in male Wister rats, following a previously established protocol [Ref. 17]. Briefly, a 1 cm incision was made on the medial tibia and the bone exposed. A 1.5 mm hole was drilled, 0.01 mL of arachidonic acid (a sclerosing agent) and 0.05 mL of a suspension containing MRSA DRL-6169 at 10^8 cfu/mL was injected into the bone. A 5 mm threaded stainless-steel K-wire was inserted. The hole was closed with dental gypsum and the site closed. After implantation, the muscle and fascia were closed with 3-0 vicryl using simple interrupted sutures. The skin was closed with sterile wound clips and VetBond. The wound was sprayed with Aluspray and Chew Guard. After 7 days of implantation of wire, the animal was put on iron-deficient diet for 7 days and on the day of imaging, the animals were fasted for 4 hours prior to the injection of the PET probe. [^68Ga]Ga-H3P2O8 (32.81±6.28 MBq, n=18) were injected into the rat model via tail vein injection. The rat model was either a normal rat model or an osteomyelitis foreign body rat model or an inflamed foreign body rat model. PET/CT images were acquired at 15 minutes, 30 minutes, 60 minutes, and 120 minutes post-injection using Siemens Inveon MicroPET/CT Scanner (see FIGS. 17, 18, and Table 2).
To assess the preferential uptake of novel [^68Ga]Ga-H3P2O8 PET probe in infection as compared to inflammation, the same surgery and imaging was performed but omitted the MRSA. […] The probe [^68Ga]Ga-H3P2O8 was also successfully used to detect thigh infection caused by E coli in a mouse model.
To further investigate the selectivity of [^68Ga]Ga-H3P2O8 for imaging infection over inflammation, this novel probe was compared to other PET imaging probes, [^68Ga]Ga-Citrate and [^18F]FDG in an inflammation model. In a side-by-side study, all three probes were used to image inflammation (i.e., an inflamed tibia) in an osteomyelitis foreign body rat model.

| SMILES | difference in mean SUV between the probes in inflamed tibia |
| --- | --- |
| OC[C@H]1OC(O)[C@H]([18F])[C@@H](O)[C@@H]1O (some centres unmarked) [[^18F]FDG, [^18F]Fluorodeoxyglucose] | no significant difference |
| O=C([O-])CC(O)(CC(=O)[O-])C(=O)[O-].[Ga+3] [[^68Ga]Ga-Citrate] | no significant difference |
